Measured values published in patent publication US20070105114A1, “Biomarkers of cyclin-dependent kinase modulation” (priority 2003, published 2007).
Structures can show the parent of a compound that is named as a salt. Where two headings read alike, the source gives them in different places.

Legend:
W28729 [1] = test: Clinical study CA174-002 (24 hr infusion), W28729 expression in patient PBMC by RT-PCR; type: in vivo, human; settings: patients
Description: Patient inclusion criteria: The patient inclusion criteria included: primary solid malignancy refractory to current therapy and adequate bone marrow, hepatic, and renal function. Treatments: Two different treatments were undertaken: (i) 174-001 Study: 1 hr infusion of BMS-387032 q 3 wks; and (ii) 174-002 Study: 24 hr infusion of BMS-387032 q 3 wks. The sampling times were pre-dose, and 2, 6, 24 hour post-dose. W28729 Expression Analysis: RT-PCR. Patient blood samples were collected in PAXgene™ Blood Collection Tubes (Qiagen, catalog #762155). Total RNA was isolated following the manufacturer's instructions using a PAXgene™ blood RNA Kit (Qiagen, catalog #762134). W28729 and GAPDH (housekeeping gene) RNA abundance was measured by Taqman assays, using an ABI PRISM 7900 HT Sequence Detection System. W28729 abundance was normalized relative to GAPDH. Primer and probe sequences are as shown below.

mouse ortholog of W28729 = test: Mouse ortholog of W28729 expression in PBMC of tumor mice; type: in vivo; settings: PBMC isolated from the tumor mice, compared with tumors
Description: At the minimum efficacious dose (MED) of 18 mg/kg/day, the induction was sustained for more than 6 hours. In an infusion regimen using the minimum efficacious dose of 40 mg/kg, gene induction was sustained for at least 16 hours. […] Treatment with an efficacious regimen results in >2 fold induction of the sequence for 6 hours or longer. […] In addition, these observations support the use of PBMC as a surrogate tissue for monitoring changes in gene expression, that result from treatment with the cdk2 inhibitor.

[2] = system: A2780 ovarian carcinoma cells; test: Clonogenic growth assay (colony formation); type: cell-based, human; settings: for IC50 / IC90: Homo sapiens, A2780, A2780s Clonogenic assay; for IC50: read-out: IC50, inhibition of colony formation; for IC90: read-out: IC90, inhibition of colony formation
Description: Clonogenic Growth Assay: The colony growth inhibition was measured for the A2780 ovarian carcinoma cells using a standard clonogenic assay. In this assay, 200 cells/well were seeded into 6-well tissue culture plates (Falcon™) (Becton, Dickinson and Company, Franklin Lakes, N.J., USA) and allowed to attach for 18 hours. Assay medium consisted of RPMI-1640 plus 10% fetal bovine serum. Cells were then treated in duplicate with a six concentration dose-response curve. The maximum concentration of DMSO never exceeded 0.25%. Cells were exposed to the cdk2 inhibitor for 4, 8, or 24 hours. The cdk2 inhibitor was then removed and the cells were washed with 2 volumes of PBS. The normal growth medium was then replaced. Colonies were fed with fresh media every third day. Colony number was scored on day 10-14 using a Optimax imaging station. The cdk2 inhibitor concentration required to inhibit 50% or 90% of colony formation (IC50 or IC90, respectively) was determined by non-linear regression analysis. The coefficient of variance (standard deviation/mean, n=3)=30%. Treatment of A2780 and PBMC was carried out as described above. The doses of the cdk2 inhibitor were derived from an understanding of the kinetics of tumor cell growth inhibition by the cdk2 inhibitor as assessed by proliferation and clonogenic assays (Table 3). […] A minimal exposure of 8 hours was required for effective inhibition of colony formation. The values obtained from the 24 hour clonogenic assay were in good agreement with the 72 hour proliferation assay.

W28729 [3] = test: W28729 expression in human ovarian carcinoma xenograft A2780 tumors in nude mice; type: in vivo, mouse
Description: The human ovarian carcinoma xenograft A2780s were maintained in Balb/c nu/nu nude mice. Tumors were propagated as subcutaneous (sc) transplants using tumor fragments obtained from donor mice. For the cdk2 inhibitor treatment, tumors were allowed to grow to the pre-determined size window of approximately 100-200 mg (tumors outside the range were excluded) and animals were evenly distributed to various treatment and control groups (n=6). Treatment of each animal was based on individual body weight. The cdk2 inhibitor was first dissolved in a mixture of Cremophor®/ethanol (50:50). One hour prior to administration, the cdk2 inhibitor was diluted with water so that the dosing solutions contained the specified excipient composition, i.e., Cremophor®/ethanol/water (1:1:8, v/v). The volume of all compounds injected was 0.01 ml/gm of mice. The cdk2 inhibitor was administered as a bolus injection intraperitoneal at doses of 36 and 18 mg/kg. Tumor and plasma were sampled at the time points of 4, 7, and 24 hour post treatment. Plasma sample was frozen immediately at −80° C. for pharmacokinetic analysis, and tumor sample was preserved in RNAase free buffer for pharmacogenomic analysis. The biomarker W28729 (SEQ ID NO: 1246) was selected as a preferred marker. A same-well multiplex real-time quantitative PCR assay on this biomarker with normalization control, house-keeping gene GAPDH, was developed using Taq-man MGB probes. Gene expression changes for W28729 were measured with real-time quantitative PCR assays in the following sample sets: A2780 human tumor cell line treated with 20 nM of cdk2 inhibitor for different durations (FIG. 3A), PBMC treated with 10n-M cdk2 inhibitor at 4 hours (FIG. 3B); and human ovarian carcinoma xenograft A2780 treated with cdk2 inhibitor at doses of 36 and 18 mg/kg for different durations (FIG. 3C). […] At the minimum efficacious dose (MED) of 18 mg/kg/day, the induction was sustained for more than 6 hours. In an infusion regimen using the minimum efficacious dose of 40 mg/kg, gene induction was sustained for at least 16 hours. […] Treatment with an efficacious regimen results in >2 fold induction of the sequence for 6 hours or longer. […] In addition, these observations support the use of PBMC as a surrogate tissue for monitoring changes in gene expression, that result from treatment with the cdk2 inhibitor.

A2780s = test: 72 hr XTT proliferation assay; type: cell-based; settings: Homo sapiens, 72 hr. XTT assay
Description: Treatment of A2780 and PBMC was carried out as described above. The doses of the cdk2 inhibitor were derived from an understanding of the kinetics of tumor cell growth inhibition by the cdk2 inhibitor as assessed by proliferation and clonogenic assays (Table 3). […] A minimal exposure of 8 hours was required for effective inhibition of colony formation. The values obtained from the 24 hour clonogenic assay were in good agreement with the 72 hour proliferation assay.

CC(C)(C)c1cnc(CSc2cnc(NC(=O)C3CCNCC3)s2)o1 [cdk2 inhibitor, N-5-[[5-(1,1-Dimethylethyl)-2-oxazolyl]methyl]thio]-2-thiazolyl-4-piperidinecarboxamide, 0.5-L-tartaric acid salt]
W28729 induction in PBMC (W28729 [1]): modest induction of W28729 expression | time W28729 induction was sustained following end of infusion (W28729 [1]): 6 h | induction of the mouse ortholog sequence in PBMC (mouse ortholog of W28729): strikingly similar pattern of induction | minimal exposure required for effective inhibition of colony formation ([2]; A2780s): 8 h | growth inhibition, dependence on exposure time ([2]; A2780s, proliferation and clonogenic assays): time dependent | IC50 ([2]; 4 hr. exposure): 0.302 µM | IC90 ([2]; 4 hr. exposure): > 1 µM | IC50 ([2]; 8 hr. exposure): 0.154 µM | IC90 ([2]; 8 hr. exposure): 0.303 µM | IC50 ([2]; 24 hr. exposure): 0.166 µM | IC90 ([2]; 24 hr. exposure): 0.208 µM | pattern of W28729 induction in the tumors (W28729 [3]; A2780 xenografts, bolus i.p. treatments): transient, dose-dependent manner | duration of sustained W28729 induction (W28729 [3]; A2780 xenografts, bolus i.p., MED of 18 mg/kg/day): more than 6 hours | duration of sustained gene induction (W28729 [3]; A2780 xenografts, infusion regimen, 40 mg/kg): at least 16 hours | induction of the sequence (W28729 [3]; efficacious regimen, for 6 hours or longer): > 2 fold | duration of W28729 gene induction versus dose (W28729 [3]; nude mice bearing A2780 xenografts, 36 and 18 mg/kg): dose-dependent prolongation of the duration of gene induction | induction of W28729 in tumor (W28729 [3]; nude mice bearing A2780 xenografts, efficacious doses (36 and 18 mg/kg)): induction of W28729 | IC50 (A2780s): 0.095 µM | IC90 (A2780s): 0.17 µM
